US20050009840A1 (SUGEN, INC., priority 2003, published 2005)

molecular target: T1, Met kinase domain (GST fusion protein) (Homo sapiens, UniProt P08581); experiment: Met transphosphorylation assay (ELISA, poly(glu-tyr) substrate); assay type: biochemical; conditions: read-out: Met IC50;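 note: Cell-free ELISA with plate-bound poly(Glu:Tyr 4:1) phosphorylated by GST-fused Met kinase domain plus ATP and Mn2+, phosphotyrosine detected by anti-phosphotyrosine antibody with HRP and ABTS read-out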
T1 construct: Purified GST fusion protein containing the Met kinase domain
T1 sequence (P08581 1078-1345 limits assumed): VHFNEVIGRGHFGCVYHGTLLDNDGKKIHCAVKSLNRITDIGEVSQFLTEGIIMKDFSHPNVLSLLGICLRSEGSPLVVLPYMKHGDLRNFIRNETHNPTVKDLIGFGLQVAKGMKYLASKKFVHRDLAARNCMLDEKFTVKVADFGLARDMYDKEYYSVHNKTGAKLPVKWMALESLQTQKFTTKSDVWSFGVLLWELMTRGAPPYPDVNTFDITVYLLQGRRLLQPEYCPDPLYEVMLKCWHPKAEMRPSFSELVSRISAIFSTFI

Compound | IC50 [nM]
CC(Oc1nc(-c2cccc(C(=O)NCCCN3CCCC3)c2)cnc1N)c1c(F)ccc(F)c1Cl (stereo not drawn) [II-97, 3-{5-Amino-6-[1-(2-chloro-3,6-difluoro-phenyl)-ethoxy]-pyrazin-2-yl}-N-(3-pyrrolidin-1-yl-propyl)-benzamide] | 350
CC(Oc1nc(-c2cccc(C(=O)NC3CCN(C)CC3)c2)cnc1N)c1c(F)ccc(F)c1Cl (stereo not drawn) [II-98, 3-{5-Amino-6-[1-(2-chloro-3,6-difluoro-phenyl)-ethoxy]-pyrazin-2-yl}-N-(1-methyl-piperidin-4-yl)-benzamide] | 210
CC(Oc1nc(-c2cccc(C(=O)NCCN3CCCC3)c2)cnc1N)c1c(F)ccc(F)c1Cl (stereo not drawn) [II-99, 3-{5-Amino-6-[1-(2-chloro-3,6-difluoro-phenyl)-ethoxy]-pyrazin-2-yl}-N-(2-pyrrolidin-1-yl-ethyl)-benzamide] | 180
CC(Oc1nc(-c2cccc(C(=O)NCCN3CCOCC3)c2)cnc1N)c1c(F)ccc(F)c1Cl (stereo not drawn) [II-100, 3-{5-Amino-6-[1-(2-chloro-3,6-difluoro-phenyl)-ethoxy]-pyrazin-2-yl}-N-(2-morpholin-4-yl-ethyl)-benzamide] | 310
CC(=O)N1CCN(CCNC(=O)c2cccc(-c3cnc(N)c(OC(C)c4c(F)ccc(F)c4Cl)n3)c2)CC1 (stereo not drawn) [II-101, N-[2-(4-Acetyl-piperazin-1-yl)ethyl]-3-{5-amino-6-[1-(2-chloro-3,6-difluoro-phenyl)-ethoxy]-pyrazin-2-yl}-benzamide] | 640
CC(Oc1nc(-c2ccc(C(=O)NCCCN3CCCC3)cc2)cnc1N)c1c(F)ccc(F)c1Cl (stereo not drawn) [II-109, 4-{5-Amino-6-[1-(2-chloro-3,6-difluoro-phenyl)-ethoxy]-pyrazin-2-yl}-N-(3-pyrrolidin-1-yl-propyl)-benzamide] | 100
CC(Oc1nc(-c2ccc(C(=O)N3CCN(C)CC3)cc2)cnc1N)c1c(F)ccc(F)c1Cl (stereo not drawn) [II-110, (4-{5-Amino-6-[1-(2-chloro-3,6-difluoro-phenyl)-ethoxy]-pyrazin-2-yl}-phenyl)-(4-methyl-piperazin-1-yl)-methanone] | 160
CC(Oc1nc(-c2ccc(C(=O)N3CCC(N4CCCC4)CC3)cc2)cnc1N)c1c(F)ccc(F)c1Cl (stereo not drawn) [II-111, (4-{5-Amino-6-[1-(2-chloro-3,6-difluoro-phenyl)-ethoxy]-pyrazin-2-yl}-phenyl)-(4-pyrrolidin-1-yl-piperidin-1-yl)-methanone] | 170
CC(Oc1nc(-c2ccc(C(=O)N3C[C@@H](C)N[C@@H](C)C3)cc2)cnc1N)c1c(F)ccc(F)c1Cl (stereo partly drawn) [II-112] | 190
CC(Oc1nc(-c2ccc(C(=O)N3CCC[C@H]3CN3CCCC3)cc2)cnc1N)c1c(F)ccc(F)c1Cl (stereo partly drawn) [II-113, (4-{5-Amino-6-[1-(2-chloro-3,6-difluoro-phenyl)-ethoxy]-pyrazin-2-yl}-phenyl)-((S)-2-pyrrolidin-1-ylmethyl-pyrrolidin-1-yl)-methanone] | 180
CC(Oc1nc(-c2ccc(C(=O)N3CCC[C@@H]3CN3CCCC3)cc2)cnc1N)c1c(F)ccc(F)c1Cl (stereo partly drawn) [II-114, (4-{5-Amino-6-[1-(2-chloro-3,6-difluoro-phenyl)-ethoxy]-pyrazin-2-yl}-phenyl)-((R)-2-pyrrolidin-1-ylmethyl-pyrrolidin-1-yl)-methanone] | 130
CC(Oc1nc(-c2ccc(C(=O)N3CC[C@@H](N)C3)cc2)cnc1N)c1c(F)ccc(F)c1Cl (stereo partly drawn) [II-115, (4-{5-Amino-6-[1-(2-chloro-3,6-difluoro-phenyl)-ethoxy]-pyrazin-2-yl}-phenyl)-((R)-3-amino-pyrrolidin-1-yl)-methanone] | 78
CC(Oc1nc(-c2ccc(C(=O)NC3CCN(C)CC3)cc2)cnc1N)c1c(F)ccc(F)c1Cl (stereo not drawn) [II-116, 4-{5-Amino-6-[1-(2-chloro-3,6-difluoro-phenyl)-ethoxy]-pyrazin-2-yl}-N-(1-methyl-piperidin-4-yl)-benzamide] | 190
CC(Oc1nc(-c2ccc(C(=O)NCCN3CCCC3)cc2)cnc1N)c1c(F)ccc(F)c1Cl (stereo not drawn) [II-117, 4-{5-Amino-6-[1-(2-chloro-3,6-difluoro-phenyl)-ethoxy]-pyrazin-2-yl}-N-(2-pyrrolidin-1-yl-ethyl)-benzamide] | 110
CC(Oc1nc(-c2ccc(C(=O)NCCN3CCOCC3)cc2)cnc1N)c1c(F)ccc(F)c1Cl (stereo not drawn) [II-118, 4-{5-Amino-6-[1-(2-chloro-3,6-difluoro-phenyl)-ethoxy]-pyrazin-2-yl}-N-(2-morpholin-4-yl-ethyl)-benzamide] | 260
CC(=O)N1CCN(CCNC(=O)c2ccc(-c3cnc(N)c(OC(C)c4c(F)ccc(F)c4Cl)n3)cc2)CC1 (stereo not drawn) [II-119, N-[2-(4-Acetyl-piperazin-1-yl)-ethyl]-4-{5-amino-6-[1-(2-chloro-3,6-difluoro-phenyl)-ethoxy]-pyrazin-2-yl}-benzamide] | 480
CC(Oc1nc(-c2ccc(NS(=O)(=O)CCN3CCN(C(=O)CO)CC3)cc2)cnc1N)c1c(F)ccc(F)c1Cl (stereo not drawn) [II-120, 2-[4-(2-Hydroxy-acetyl)-piperazin-1-yl]-ethanesulfonic acid (4-{5-amino-6-[1-(2-chloro-3,6-difluoro-phenyl)-ethoxy]-pyrazin-2-yl}-phenyl)-amide] | 190

Compound | IC50 [nM]
Nc1ncc(-c2cccc(C(=O)N3CCC(N4CCCC4)CC3)c2)nc1OCc1cccc(F)c1C(F)(F)F [II-122, {3-[5-Amino-6-(3-fluoro-2-trifluoromethyl-benzyloxy):pyrazin-2-yl]-phenyl)(4-pyrrolidin-1-yl-piperidin-1-yl)-methanone] | 190
CN1CCN(C(=O)c2cccc(-c3cnc(N)c(OCc4cccc(F)c4C(F)(F)F)n3)c2)CC1 [II-124, {3-[5-Amino-6-(3-fluoro-2-trifluoromethyl-benzylloxy)-pyrazin-2-yl]-phenyl}-(4-methyl-piperazin-1-yl)-methanone] | 230
Nc1ncc(-c2cccc(C(=O)NCCCN3CCCC3)c2)nc1OCc1cccc(F)c1C(F)(F)F [II-125, 3-[5-Amino-6-(3-fluoro-2-trifluoromethyl-benzyloxy)-pyrazin-2-yl]-N-(3-pyrrolidin-1-yl-propyl)-benzamide] | 220
CC(=O)N1CCN(CCNC(=O)c2cccc(-c3cnc(N)c(OCc4cccc(F)c4C(F)(F)F)n3)c2)CC1 [II-126, N-[2-(4-Acetyl-piperazin-1-yl)-ethyl]-3-[5-amino-6-(3-fluoro-2-trifluoromethyl-benzyloxy)-pyrazin-2-yl]-benzamide] | 650
Nc1ncc(-c2ccc(C(=O)N3CCC(N4CCCC4)CC3)cc2)nc1OCc1cccc(F)c1C(F)(F)F [II-127, {4-[5-Amino-6-(3-fluoro-2-trifluoromethyl-benzyloxy)-pyrazin-2-yl]-phenyl}-(4-pyrrolidin-1-yl-piperidin-1-yl)-methanone] | 47
CN1CCN(C(=O)c2ccc(-c3cnc(N)c(OCc4cccc(F)c4C(F)(F)F)n3)cc2)CC1 [II-128, {4-[5-Amino-6-(3-fluoro-2-trifluoromethyl-benzyloxy)-pyrazin-2-yl]-phenyl}-(4-methyl-piperazin-1-yl)-methanone] | 150
Nc1ncc(-c2ccc(C(=O)N3CCC[C@H]3CN3CCCC3)cc2)nc1OCc1cccc(F)c1C(F)(F)F [II-129, {4-[5-Amino-6-(3-fluoro-2-trifluoromethyl-benzyloxy)-pyrazin-2-yl]-phenyl}-((S)-2-pyrrolidin-1-ylmethyl-pyrrolidin-1-yl)-methanone] | 52
CC(Oc1nc(-c2cccc(C(=O)N3CCN(C)CC3)c2)cnc1N)c1c(Cl)ccc(F)c1Cl (stereo not drawn) [II-130, (3-{5-Amino-6-[1-(2,6-dichloro-3-fluoro-phenyl)-ethoxy]-pyrazin-2-yl}-phenyl)-(4-methyl-piperazin-1-yl)-methanone] | 170
CC(Oc1nc(-c2cccc(C(=O)N3C[C@@H](C)N[C@@H](C)C3)c2)cnc1N)c1c(Cl)ccc(F)c1Cl (stereo partly drawn) [II-131, (3-{5-Amino-6-[1-(2,6-dichloro-3-fluoro-phenyl)-ethoxy]-pyrazin-2-yl}-phenyl)-((3R,5S)-3,5-dimethyl-piperazin-1-yl)-methanone] | 120
CC(Oc1nc(-c2cccc(C(=O)NC3CCN(C)CC3)c2)cnc1N)c1c(Cl)ccc(F)c1Cl (stereo not drawn) [II-132, 3-{5-Amino-6-[1-(2,6-dichloro-3-fluoro-phenyl)-ethoxy]-pyrazin-2-yl}-N-(1-methyl-piperidin-4-yl)-benzamide] | 130
CC(Oc1nc(-c2cccc(C(=O)NCCN3CCCC3)c2)cnc1N)c1c(Cl)ccc(F)c1Cl (stereo not drawn) [II-133, 3-{5-Amino-6-[1-(2,6-dichloro-3-fluoro-phenyl)-ethoxy]-pyrazin-2-yl}-N-(2-pyrrolidin-1-yl-ethyl)-benzamide] | 170
CC(Oc1nc(-c2cccc(C(=O)NCCN3CCOCC3)c2)cnc1N)c1c(Cl)ccc(F)c1Cl (stereo not drawn) [II-134, 3-{5-Amino-6-[1-(2,6-dichloro-3-fluoro-phenyl)-ethoxy]-pyrazin-2-yl}-N-(2-morpholin-4-yl-ethyl)-benzamide] | 210
CC(Oc1nc(-c2cccc(C(=O)NCCCN3CCOCC3)c2)cnc1N)c1c(Cl)ccc(F)c1Cl (stereo not drawn) [II-135, 3-{5-Amino-6-[1-(2,6-dichloro-3-fluoro-phenyl)-ethoxy]-pyrazin-2-yl}-N-(3-morpholin-4-yl-propyl)-benzamide] | 260
CC(Oc1nc(-c2cccc(C(=O)N3CCC(NC4CC4)CC3)c2)cnc1N)c1c(Cl)ccc(F)c1Cl (stereo not drawn) [II-136, (3-{5-Amino-6-[1-(2,6-dichloro-3-fluoro-phenyl)-ethoxy]-pyrazin-2-yl}-phenyl)-(4-cyclopropylamino-piperidin-1-yl)-methanone] | 150
CC(Oc1nc(-c2cccc(C(=O)NC[C@H](O)CN3CCOCC3)c2)cnc1N)c1c(Cl)ccc(F)c1Cl (stereo partly drawn) [II-137, 3-{5-Amino-6-[1-(2,6-dichloro-3-fluoro-phenyl)-ethoxy]-pyrazin-2-yl}-N-((S)-2-hydroxy-3-morpholin-4-yl-propyl)-benzamide] | 300
CC(Oc1nc(-c2cccc(C(=O)NC[C@@H](O)CN3CCCC3)c2)cnc1N)c1c(Cl)ccc(F)c1Cl (stereo partly drawn) [II-138, 3-{5-Amino-6-[1-(2,6-dichloro-3-fluoro-phenyl)-ethoxy]-pyrazin-2-yl}-N-((R)-2-hydroxy-3-pyrrolidin-1-yl-propyl)-benzamide] | 130
